{
  "source": "ChEMBL document CHEMBL5215006",
  "about": "“Antitumor Activity of Piceamycin by Upregulation of N-Myc Downstream-Regulated Gene 1 in Human Colorectal Cancer Cells” (J Nat Prod, 2022)",
  "key": {"SW480 [1]": {"test_system": "SW480", "experiment": "Cell cycle arrest in human SW480 cells assessed as downregulation of CDK4 protein expression at 0.35 to 1.4 uM incubated for 24 hrs by immunoblotting assay", "type": "functional, cell-based", "conditions": "dose 0.35-1.4 µM"}, "HCT-116 [2]": {"test_system": "HCT-116", "experiment": "Cell cycle arrest in human HCT-116 cells assessed as accumulation at G2/M phase at 0.075 uM incubated for 24 hrs by RNaseA/propidium iodide staining based flow cytometry (reference value: 28.41 %)", "type": "functional"}, "SW480 [3]": {"test_system": "SW480", "experiment": "Antitumor activity against human SW480 cells assessed as decrease in c-Myc expression at 0.35 to 1.4 uM incubated for 24 hrs by immunoblotting assay", "type": "functional, cell-based", "conditions": "dose 0.35-1.4 µM"}, "HCT-116 [4]": {"test_system": "HCT-116", "experiment": "Anti-migratory activity against human HCT-116 cells assessed as downregulation of Snail protein expression at 0.075 to 0.3 uM incubated for 24 hrs by immunoblotting assay", "type": "functional, cell-based", "conditions": "dose 0.075-0.3 µM"}, "HCT-116 [5]": {"test_system": "HCT-116", "experiment": "Anti-migratory activity against human HCT-116 cells assessed as downregulation of N-cadherin gene expression at 0.075 to 0.3 uM incubated for 24 hrs by RT-PCR assay", "type": "functional, cell-based", "conditions": "dose 0.075-0.3 µM"}, "HCT-116 [6]": {"test_system": "HCT-116", "experiment": "Induction of apoptosis in human HCT-116 cells assessed as early apoptotic cells at 0.15 uM incubated for 48 hrs by Annexin V-FITC/PI staining based flow cytometry analysis (Rvb= 2.51%)", "type": "functional"}, "SW480 [7]": {"test_system": "SW480", "experiment": "Cell cycle arrest in human SW480 cells assessed as accumulation at S phase at 1.4 uM incubated for 24 hrs by RNaseA/propidium iodide staining based flow cytometry (reference value: 16.7 %)", "type": "functional"}, "SW480 [8]": {"test_system": "SW480", "experiment": "Cell cycle arrest in human SW480 cells assessed as downregulation of CDK6 protein expression at 0.35 to 1.4 uM incubated for 24 hrs by immunoblotting assay", "type": "functional, cell-based", "conditions": "dose 0.35-1.4 µM"}, "HCT-116 [9]": {"test_system": "HCT-116", "experiment": "Inhibition of cell migration in human HCT-116 cells at 0.075 to 0.3 uM incubated for 24 hrs by wound-healing assay", "type": "functional, cell-based", "conditions": "dose 0.075-0.3 µM, DDE = dose-dependent effect"}, "HCT-116 [10]": {"test_system": "HCT-116", "experiment": "Antiproliferative activity against human HCT-116 cells assessed as cell growth inhibition incubated for 72 hrs by SRB assay", "type": "functional, cell-based", "conditions": "HCT-116, 72 h"}, "HCT-116 [11]": {"test_system": "HCT-116", "experiment": "Induction of apoptosis in human HCT-116 cells assessed as late apoptotic cells at 0.3 uM incubated for 48 hrs by Annexin V-FITC/PI staining based flow cytometry analysis (Rvb= 3.18%)", "type": "functional"}, "HCT-116 [12]": {"test_system": "HCT-116", "experiment": "Antitumor activity against human HCT-116 cells xenografted Balb/c mouse assessed as decrease in Ki67 protein expression at 1 mg/kg,ip administrated for 18 days by 3 times per week by immunoblotting assay", "type": "functional, organism-based", "conditions": "time 18.0 day"}, "SW480 [13]": {"test_system": "SW480", "experiment": "Anti-migratory activity against human SW480 cells assessed as downregulation of N-cadherin gene expression at 0.35 to 1.4 uM incubated for 24 hrs by RT-PCR assay", "type": "functional, cell-based", "conditions": "dose 0.35-1.4 µM"}, "HCT-116 [14]": {"test_system": "HCT-116", "experiment": "Inhibition of colony formation in human HCT-116 cells at 0.075 to 0.3 uM incubated for 72 hrs by crystal violet staining based assay", "type": "functional, cell-based", "conditions": "dose 0.075-0.3 µM, DDE = dose-dependent effect"}, "SW480 [15]": {"test_system": "SW480", "experiment": "Induction of apoptosis in human SW480 cells assessed as viable cells at 1.4 uM incubated for 48 hrs by Annexin V-FITC/PI staining based flow cytometry analysis (Rvb= 92.6%)", "type": "functional", "conditions": "read-out: Activity"}, "HCT-116 [16]": {"test_system": "HCT-116", "experiment": "Cell cycle arrest in human HCT-116 cells assessed as accumulation at G2/M phase at 0.3 uM incubated for 24 hrs by RNaseA/propidium iodide staining based flow cytometry (reference value: 28.41 %)", "type": "functional"}, "SW480 [17]": {"test_system": "SW480", "experiment": "Induction of apoptosis in human SW480 cells assessed as upregulation of cleaved caspase-8 expression at 1.4 uM measured at 12 to 48 hrs by immunoblotting assay", "type": "functional, cell-based", "conditions": "time 12-48 hrs, TDE = time-dependent effect"}, "HCT-116 [18]": {"test_system": "HCT-116", "experiment": "Antitumor activity against human HCT-116 cells assessed as upregulation of NDRG1 protein expression at 0.075 to 0.3 uM incubated for 24 hrs by immunoblotting assay", "type": "functional, cell-based", "conditions": "dose 0.075-0.3 µM, DDE = dose-dependent effect"}, "SW480 [19]": {"test_system": "SW480", "experiment": "Induction of apoptosis in human SW480 cells assessed as late apoptotic cells at 0.7 uM incubated for 48 hrs by Annexin V-FITC/PI staining based flow cytometry analysis (Rvb= 5.26%)", "type": "functional"}, "HCT-116 [20]": {"test_system": "HCT-116", "experiment": "Antitumor activity against human HCT-116 cells xenografted Balb/c mouse assessed as reduction in tumor growth at 3 mg/kg,ip administrated for 18 days by 3 times per week", "type": "functional", "parameters": "scale not given: the % may be the effect or the level left", "conditions": "time 18 day"}, "HCT-116 [21]": {"test_system": "HCT-116", "experiment": "Antitumor activity against human HCT-116 cells xenografted Balb/c mouse assessed as increase in NDRG1 protein expression at 1 mg/kg,ip administrated for 18 days by 3 times per week by immunoblotting assay", "type": "functional, organism-based", "conditions": "time 18.0 day"}, "HCT-116 [22]": {"test_system": "HCT-116", "experiment": "Induction of apoptosis in human HCT-116 cells assessed as early apoptotic cells at 0.3 uM incubated for 48 hrs by Annexin V-FITC/PI staining based flow cytometry analysis (Rvb= 2.51%)", "type": "functional"}, "HCT-116 [23]": {"test_system": "HCT-116", "experiment": "Anti-migratory activity against human HCT-116 cells assessed as upregulation of E-cadherin gene expression at 0.075 to 0.3 uM incubated for 24 hrs by RT-PCR assay", "type": "functional, cell-based", "conditions": "dose 0.075-0.3 µM"}, "HCT-116 [24]": {"test_system": "HCT-116", "experiment": "Induction of apoptosis in human HCT-116 cells assessed as late apoptotic cells at 0.075 uM incubated for 48 hrs by Annexin V-FITC/PI staining based flow cytometry analysis (Rvb= 3.18%)", "type": "functional"}, "SW480 [25]": {"test_system": "SW480", "experiment": "Cell cycle arrest in human SW480 cells assessed as accumulation at G0/G1 phase at 1.4 uM incubated for 24 hrs by RNaseA/propidium iodide staining based flow cytometry (reference value: 54.49 %)", "type": "functional"}, "HCT-116 [26]": {"test_system": "HCT-116", "experiment": "Antimigratory activity against highly liver metastatic human HCT-116 cells assessed as upregulation of NDRG1 gene expression at 0.075 to 0.3 uM incubated for 24 hrs by RT-PCR method", "type": "functional, cell-based", "conditions": "dose 0.075-0.3 µM"}, "[27]": {"experiment": "Toxicity in Balb/c mouse xenografted with human HCT-116 cells assessed as body weight change at 1 mg/kg,ip administrated for 18 days by 3 times per week", "type": "organism-based", "conditions": "in vivo, 432 h, time 18 day"}, "HCT-116 [28]": {"test_system": "HCT-116", "experiment": "Antimigratory activity against highly liver metastatic human HCT-116 cells assessed as downregulation of N-cadherin protein expression at 0.075 to 0.3 uM incubated for 24 hrs by immunoblotting assay", "type": "functional, cell-based", "conditions": "dose 0.075-0.3 µM"}, "HCT-116 [29]": {"test_system": "HCT-116", "experiment": "Anti-migratory activity against human HCT-116 cells assessed as upregulation of E-cadherin protein expression at 0.075 to 0.3 uM incubated for 24 hrs by immunoblotting assay", "type": "functional, cell-based", "conditions": "dose 0.075-0.3 µM"}, "SW480 [30]": {"test_system": "SW480", "experiment": "Cell cycle arrest in human SW480 cells assessed as accumulation at G2/M phase at 0.7 uM incubated for 24 hrs by RNaseA/propidium iodide staining based flow cytometry (reference value: 24.74 %)", "type": "functional"}, "HCT-116 [31]": {"test_system": "HCT-116", "experiment": "Cell cycle arrest in human HCT-116 cells assessed as accumulation at S phase at 0.075 uM incubated for 24 hrs by RNaseA/propidium iodide staining based flow cytometry (reference value: 19.94 %)", "type": "functional"}, "HCT-116 [32]": {"test_system": "HCT-116", "experiment": "Cell cycle arrest in human HCT-116 cells assessed as downregulation of cyclin-D1 protein expression at 0.075 to 0.3 uM incubated for 24 hrs by immunoblotting assay", "type": "functional, cell-based", "conditions": "dose 0.075-0.3 µM"}, "HCT-116 [33]": {"test_system": "HCT-116", "experiment": "Upregulation of c-Myc protein expression in human HCT-116 cells with NDRG1 knockdown at 0.3 uM incubated for 24 hrs by immunoblotting assay", "type": "functional, cell-based"}, "[34]": {"experiment": "Toxicity in Balb/c mouse xenografted with human HCT-116 cells assessed as body weight change at 3 mg/kg,ip administrated for 18 days by 3 times per week", "type": "organism-based", "conditions": "in vivo, 432 h, time 18 day"}},
  "note": "pIC50: −log10 of the molar value. Activity calls are given as the source filed them. The rule behind the calls is not given here.",
  "data": [
    {"smiles": "C[C@@H]1\\C=C/C=C/C=C\\C=C\\C=C\\C(=O)C2=C(O)C(=O)C[C@@]2(C)/C=C/C=C\\C=C/C(=O)NC1", "values": [
      {"measurement": "Activity", "setting": "SW480 [1]", "value": "Active"},
      {"measurement": "Activity", "setting": "HCT-116 [2]", "value": 29.02, "unit": "%"},
      {"measurement": "Activity", "setting": "SW480 [3]", "value": "Active"},
      {"measurement": "Activity", "setting": "HCT-116 [4]", "value": "Active"},
      {"measurement": "Activity", "setting": "HCT-116 [5]", "value": "Active"},
      {"measurement": "Activity", "setting": "HCT-116 [6]", "value": 15.66, "unit": "%"},
      {"measurement": "Activity", "setting": "SW480 [7]", "value": 11.23, "unit": "%"},
      {"measurement": "Activity", "setting": "SW480 [8]", "value": "Active"},
      {"measurement": "inhibition", "setting": "HCT-116 [9]", "value": "Dde"},
      {"measurement": "pIC50", "setting": "HCT-116 [10]", "value": 6.85},
      {"measurement": "Activity", "setting": "HCT-116 [11]", "value": 14.94, "unit": "%"},
      {"measurement": "Activity", "setting": "HCT-116 [12]", "value": "Active"},
      {"measurement": "Activity", "setting": "SW480 [13]", "value": "Active"},
      {"measurement": "inhibition", "setting": "HCT-116 [14]", "value": "Dde"},
      {"measurement": "viability at 1.4 µM", "setting": "SW480 [15]", "value": 31, "unit": "%"},
      {"measurement": "Activity", "setting": "HCT-116 [16]", "value": 22.13, "unit": "%"},
      {"measurement": "Activity", "setting": "SW480 [17]", "value": "Tde"},
      {"measurement": "Activity", "setting": "HCT-116 [18]", "value": "Dde"},
      {"measurement": "Activity", "setting": "SW480 [19]", "value": 17.78, "unit": "%"},
      {"measurement": "Activity", "setting": "HCT-116 [20]", "value": 89, "unit": "%"},
      {"measurement": "Activity", "setting": "HCT-116 [21]", "value": "Active"},
      {"measurement": "Activity", "setting": "HCT-116 [22]", "value": 44.79, "unit": "%"},
      {"measurement": "Activity", "setting": "HCT-116 [23]", "value": "Active"},
      {"measurement": "Activity", "setting": "HCT-116 [24]", "value": 6.71, "unit": "%"},
      {"measurement": "Activity", "setting": "SW480 [25]", "value": 65.42, "unit": "%"},
      {"measurement": "Activity", "setting": "HCT-116 [26]", "value": "Active"},
      {"measurement": "Activity", "setting": "[27]", "value": "Non-Toxic"},
      {"measurement": "Activity", "setting": "HCT-116 [28]", "value": "Active"},
      {"measurement": "Activity", "setting": "HCT-116 [29]", "value": "Active"},
      {"measurement": "Activity", "setting": "SW480 [30]", "value": 17.02, "unit": "%"},
      {"measurement": "Activity", "setting": "HCT-116 [31]", "value": 18.4, "unit": "%"},
      {"measurement": "Activity", "setting": "HCT-116 [32]", "value": "Active"},
      {"measurement": "Activity", "setting": "HCT-116 [33]", "value": "Active"},
      {"measurement": "Activity", "setting": "[34]", "value": "Non-Toxic"}
    ]}
  ]
}
